Results published in patent US20100016293A1, “Quinazolines and Related Heterocyclic Compounds, and Their Therapeutic Use” (priority 2006, published 2010).

Biological target: T1, human H4 receptor (Homo sapiens, UniProt Q9H3N8)
T1 construct: expressed in transfected cells; host or cells: HEK 293T cells, transient transfection with polyethyleneimine
Assay: Radioligand displacement studies at the human H4 receptor ([3H]histamine)
Type: binding
Details: [3H]histamine displacement, membranes of HEK 293T cells transfected with human H4R, 1 hour at 22° C.
Experimental: Radioligand displacement studies at the human H4 receptor were conducted. […] Approximately 4 million cells were seeded in a 10-cm dish and cultured overnight before transfection. For transfection of each dish of cells, the transfection mixture was prepared in 1 ml serum-free DMEM and contained 5 μg of human H4R receptor plasmid and 15 μl of 1 mg/ml 25 kDa linear polyethyleneimine (Polyscience, Inc., USA). The mixture was incubated for 10-15 minutes at room temperature before it was added into the monoloyer cell culture loaded with 5 ml fresh cell culture medium. Two days after transfection the cells were washed with PBS containing 1 mM EDTA, collected as pellet by centrifuging, and stored at −20° C. until use.
For the radioligand binding study, pellets of transfected cells were homogenized in H4R binding buffer (100 mM Tris-HCl, pH 7.4). For displacement binding assays, the membranes were typically incubated with 10^−4 to 10^−11 M of ligands (stock concentration was 10 mM 1 DMSO) in the presence of [^3H]histamine (Perkin-Elmer Life Science, Inc., USA) in a total volume of 200 μl. The reaction mixtures were incubated for 1 hour at room temperature (22° C.), and harvested on 96-well glass fiber C plates that were pretreated with 0.3% 750 kDa PEI. The binding assay data were analyzed using Prism 4.0 (Graphpad Software Inc., USA).

| Compound | Ki |
| --- | --- |
| CN1CCN(c2ccc3cc(Cl)ccc3n2)CC1 [VUF6959, 6-Chloro-2-(4-methyl-piperazinyl)-quinoline] | < 1000 nM |
| CCOC(=O)CNc1nc(N2CCN(C)CC2)nc2ccc(Cl)cc12 [VUF10456, Ethyl 2-(6-chloro-2-(4-methylpiperazin-1-yl)quinazolin-4-ylamino)acetate] | < 1000 nM |
| COc1ccc(CNc2nc(N3CCN(C)CC3)nc3ccc(Cl)cc23)cc1 [VUF10505, 6-Chloro-N-(4-methoxybenzyl)-2-(4-methylpiperazin-1-yl)quinazolin-4-amine] | < 1000 nM |
| CN1CCN(c2nc(NCCc3ccc([N+](=O)[O-])cc3)c3cc(Cl)ccc3n2)CC1 [VUF10506, 6-Chloro-2-(4-methylpiperazin-1-yl)-N-(4-nitrophenethyl)quinazolin-4-amine] | < 1000 nM |

Second part, the molecule after the results:

| Ki | Compound |
| --- | --- |
| < 1000 nM | CN1CCN(c2nc(NCc3ccc(N)cc3)c3cc(Cl)ccc3n2)CC1 [VUF10509, N-(4-aminobenzyl)-6-chloro-2-(4-methylpiperazin-1-yl)quinazolin-4-amine] |
| < 1000 nM | CN1CCN(c2nc(NCc3ccc(F)cc3)c3cc(Cl)ccc3n2)CC1 [VUF10513, 6-Chloro-N-(4-fluorobenzyl)-2-(4-methylpiperazin-1-yl)quinazolin-4-amine] |
| < 1000 nM | CN1CCN(c2nc(NCc3ccc(C#N)cc3)c3cc(Cl)ccc3n2)CC1 [VUF10553, 4-((6-Chloro-2-(4-methylpiperazin-1-yl)quinazolin-4-ylamino)methyl)benzonitrile] |
